Assay results taken from ChEMBL document CHEMBL1130360, “3-[(3-Hydroxymethyl)-4-hydroxybutyl]imidazo[4,5-b]pyridinesnovel antiviral agents” (Bioorg Med Chem Lett, 1997).
≈ marks a conversion by molar mass, not a printed value.

Key:
[1] = Selectivity is determined by CC50/EC50 of cytomegalovirus; type: functional
[2] = Selectivity is determined by CC50/EC50 of cytopathic effect inhibition against herpes simplex virus 2; type: functional
HEL [3] = test: Cytotoxicity of compound against varicella zoster virus infected human embryonic lung cells; type: functional
Human alphaherpesvirus 3 [4] = test: The compound was tested for the viral plaque reduction against VZV virus; Effective concentration required to inhibit 50% virus proliferation; type: functional, organism-based
Human alphaherpesvirus 1 [5] = test: The compound was tested for the cytopathic effect inhibition against herpes simplex virus 1; Effective concentration required to inhibit 50% virus proliferation; type: functional, organism-based
[6] = Selectivity is determined by CC50/EC50 of VZV virus; type: functional
Human alphaherpesvirus 2 [7] = test: (§1) The compound was tested for the cytopathic effect inhibition against herpes simplex virus 2; Effective concentration required to inhibit 50% virus proliferation; type: functional, organism-based
[8] = Selectivity is determined by CC50/EC50 of cytopathic effect inhibition against herpes simplex virus 1; type: functional
HEL [9] = test: Cytotoxicity of compound against herpes simplex virus-2 infected human embryonic lung cells; type: functional
HEL [10] = test: Cytotoxicity of compound against herpes simplex virus 1 infected human embryonic lung cells; type: functional
Human betaherpesvirus 5 = test: The compound was tested for the cytomegalovirus; Effective concentration required to inhibit 50% virus proliferation; type: functional, organism-based
HEL [11] = test: Cytotoxicity of compound against human cytomegalo virus infected human embryonic lung cells; type: functional
[12] = Selectivity is determined by CC50/EC50 of viral plaque reduction against herpes simplex virus 1; type: functional
[13] = Selectivity is determined by CC50/EC50 of viral plaque reduction against herpes simplex virus 2; type: functional
Human alphaherpesvirus 1 [14] = test: The compound was tested for the viral plaque reduction against herpes simplex virus 1; Effective concentration required to inhibit 50% virus proliferation; type: functional, organism-based
Human alphaherpesvirus 2 [15] = test: The compound was tested for the viral plaque reduction against herpes simplex virus 2; Effective concentration required to inhibit 50% virus proliferation; type: functional, organism-based
HEL [16] = test: The compound was tested for the viral plaque reduction against herpes simplex virus 2; Cytotoxicity concentration required to reduce 50% human embryonic lung cells; type: functional
Human alphaherpesvirus 3 [17] = test: as §1

Structure (SMILES) | SI [1] | SI [2] | CC50 (HEL [3]) | EC50 (Human alphaherpesvirus 3 [4]) | EC50 (Human alphaherpesvirus 1 [5]) | SI [6] | EC50 (Human alphaherpesvirus 2 [7]) | SI [8] | CC50 (HEL [9]) | CC50 (HEL [10]) | EC50 (Human betaherpesvirus 5) | CC50 (HEL [11]) | SI [12] | SI [13] | EC50 (Human alphaherpesvirus 1 [14]) | EC50 (Human alphaherpesvirus 2 [15]) | CC50 (HEL [16]) | EC50 (Human alphaherpesvirus 3 [17])
OCC(CO)CCn1cnc2cc(Cl)c(Cl)nc21 | 0 | 0 | > 100 µg/mL | 11.7 µg/mL (≈ 40.3 µM) | > 100 µg/mL | >8.5 | > 100 µg/mL | 0 | > 100 µg/mL | > 100 µg/mL | > 100 µg/mL | > 100 µg/mL | – | – | – | – | – | –
Nc1nc2c(cc1Cl)nc(C(F)(F)F)n2CCC(CO)CO | 0 | 0 | > 100 µg/mL | – | 1.2 µg/mL (≈ 3.54 µM) | – | > 100 µg/mL | >83 | > 100 µg/mL | – | > 100 µg/mL | > 100 µg/mL | 0 | 0 | > 100 µg/mL | > 100 µg/mL | > 100 µg/mL | –
CC(=O)OCC(CCn1cnc2cc(Cl)c(Cl)nc21)COC(C)=O | – | – | – | – | – | – | – | – | – | – | 132 µg/mL (≈ 353 µM) | – | – | – | – | – | – | –
OCC(CO)CCn1cnc2nc(Cl)c(Cl)cc21 | 0 | 0 | > 100 µg/mL | 49.8 µg/mL (≈ 172 µM) | > 100 µg/mL | >2 | > 100 µg/mL | 0 | > 100 µg/mL | – | > 100 µg/mL | > 100 µg/mL | – | – | – | – | – | –
Nc1nc2c(ncn2COCCO)c(=O)[nH]1 [ACYCLOVIR] | – | – | – | – | – | – | 0.2 µg/mL (≈ 0.888 µM) | – | – | – | – | – | – | – | – | 1.1 µg/mL (≈ 4.88 µM) | – | 0.6 µg/mL (≈ 2.66 µM)
Nc1nc2c(ncn2COC(CO)CO)c(=O)[nH]1 [GANCICLOVIR] | – | – | – | – | – | – | – | – | – | – | 0.1 µg/mL (≈ 0.392 µM) | – | – | – | – | – | – | –
